Measurements taken from patent US12023308B2, “Agents for reversing toxic proteinopathies” (THE BROAD INSTITUTE, INC., priority 2019, dated 2024).
Entries after “also recorded” stand apart in the source; their conditions may differ.

Legend:
Rhodopsin = assay: BRD-4780 treatment in Rho-P23H/+ mice, rhodopsin staining of retinal sections; type: in vivo, mouse; details: 50 mg/Kg/day oral gavage, 28 days
Procedure: Rhodopsin intensity was calculated in retinal sections of Rho/+ mice treated with either vehicle or BRD-4780 (FIGS. 21A and 21B), as compared to wild-type mice treated with vehicle alone. In healthy retina, Rhodopsin primarily localized to the outer segment of the photoreceptors (OS, indicated by the arrow in FIG. 21A), instead of localizing around the photoreceptor nuclei in the outer nuclear layer (ONL, indicated by an asterisk in FIG. 21A). Since there is no Rhodopsin-P23H specific antibody, the amount of Rhodopsin staining in the outer nuclear layer was calculated as a measurement of Rhodopsin accumulation in intracellular compartments. The calculated Rhodopsin staining in the ONL was normalized to the nuclear staining, to correct for differences in cell number.
The effect of BRD-4780 on Rhodopsin accumulation in intracellular compartments of mouse retinae were tested in age-matched Rho-P23H/+ and +/+ male mice. […] Animal weight was observed daily to monitor toxicity. On day 28, mice were sacrificed, and eyes were removed for further analysis.

P cells = assay: P cell viability upon THP treatment (live imaging, rescue); type: cell-based, human; details: P cells
Procedure: To study apoptosis and cell death in N and P cells, 384 well Cell Carrier Ultra plates (6057308, Perkin Elmer), pre-coated with 0.25 mg/mL Synthemax II SC Substrate (3535, Corning) were used. […] CellEvent Caspase-3/7 Green Detection Reagent (C10423, Thermo Fisher Scientific®) and DRAQ7 (DR71000, Biostatus) were used at 1:5000 to monitor apoptosis and cell death respectively. Cells were imaged daily during 4 days to monitor viability and image analysis was performed as described below. For rescue experiments, P cells were plated on 96 well Cell Carrier Ultra microplates (6055302, Perkin Elmer) at 30,000 cells/well and cultured for 24 hr. BRD-4780 (5 μM) was applied as a pretreatment for 48 hr prior to thapsigargin exposure and throughout the experiment. Thapsigargin was applied at increasing doses and the plates were imaged daily thereafter.
For the measurement of P cell rescue from THP-induced cell death by BRD-4780 (FIGS. 3I and 3J), no dyes were added to avoid any influence on cell growth. Digital phase contrast images were used for cell identification and count, and autofluorescence in the far-red channel was used for detection of dead cells. Cells with no autofluorescence were identified and calculated as live cell.
P cells were seeded 12 hr prior to profiling compound treatment at a density of 12,000 cells/well in 384 well Cell Carrier Ultra plates (6057308, Perkin Elmer), pre-coated with 0.25 mg/mL Synthemax II SC Substrate (3535, Corning). After 24 hr, CellEvent Caspase-3/7 Green Detection Reagent (C10423, Thermo Fisher Scientific®) and DRAQ7 (DR71000, Biostatus) were added at 1:5000 final dilution in the presence or absence of thapsigargin (100 nM). Cells were imaged daily during 7 days to monitor viability. Image acquisition and analysis was done as described above and viability was assessed as fraction of live cells at day 5 of thapsigargin treatment, and at the day 6 for DMSO.

Nischarin = molecular target: T1, Nischarin (Homo sapiens, UniProt Q9Y2I1); assay: Cellular thermal shift assay (CETSA) for Nischarin in P cells; type: binding; details: 5 μM, 1 hour
T1 construct: Densitometric analysis of Nischarin abundance after treatment of P cells with BRD-4780 (5 μM, 1 hour) or DMSO; endogenous in cells; host or cells: P cells
T1 sequence (Q9Y2I1 whole entry): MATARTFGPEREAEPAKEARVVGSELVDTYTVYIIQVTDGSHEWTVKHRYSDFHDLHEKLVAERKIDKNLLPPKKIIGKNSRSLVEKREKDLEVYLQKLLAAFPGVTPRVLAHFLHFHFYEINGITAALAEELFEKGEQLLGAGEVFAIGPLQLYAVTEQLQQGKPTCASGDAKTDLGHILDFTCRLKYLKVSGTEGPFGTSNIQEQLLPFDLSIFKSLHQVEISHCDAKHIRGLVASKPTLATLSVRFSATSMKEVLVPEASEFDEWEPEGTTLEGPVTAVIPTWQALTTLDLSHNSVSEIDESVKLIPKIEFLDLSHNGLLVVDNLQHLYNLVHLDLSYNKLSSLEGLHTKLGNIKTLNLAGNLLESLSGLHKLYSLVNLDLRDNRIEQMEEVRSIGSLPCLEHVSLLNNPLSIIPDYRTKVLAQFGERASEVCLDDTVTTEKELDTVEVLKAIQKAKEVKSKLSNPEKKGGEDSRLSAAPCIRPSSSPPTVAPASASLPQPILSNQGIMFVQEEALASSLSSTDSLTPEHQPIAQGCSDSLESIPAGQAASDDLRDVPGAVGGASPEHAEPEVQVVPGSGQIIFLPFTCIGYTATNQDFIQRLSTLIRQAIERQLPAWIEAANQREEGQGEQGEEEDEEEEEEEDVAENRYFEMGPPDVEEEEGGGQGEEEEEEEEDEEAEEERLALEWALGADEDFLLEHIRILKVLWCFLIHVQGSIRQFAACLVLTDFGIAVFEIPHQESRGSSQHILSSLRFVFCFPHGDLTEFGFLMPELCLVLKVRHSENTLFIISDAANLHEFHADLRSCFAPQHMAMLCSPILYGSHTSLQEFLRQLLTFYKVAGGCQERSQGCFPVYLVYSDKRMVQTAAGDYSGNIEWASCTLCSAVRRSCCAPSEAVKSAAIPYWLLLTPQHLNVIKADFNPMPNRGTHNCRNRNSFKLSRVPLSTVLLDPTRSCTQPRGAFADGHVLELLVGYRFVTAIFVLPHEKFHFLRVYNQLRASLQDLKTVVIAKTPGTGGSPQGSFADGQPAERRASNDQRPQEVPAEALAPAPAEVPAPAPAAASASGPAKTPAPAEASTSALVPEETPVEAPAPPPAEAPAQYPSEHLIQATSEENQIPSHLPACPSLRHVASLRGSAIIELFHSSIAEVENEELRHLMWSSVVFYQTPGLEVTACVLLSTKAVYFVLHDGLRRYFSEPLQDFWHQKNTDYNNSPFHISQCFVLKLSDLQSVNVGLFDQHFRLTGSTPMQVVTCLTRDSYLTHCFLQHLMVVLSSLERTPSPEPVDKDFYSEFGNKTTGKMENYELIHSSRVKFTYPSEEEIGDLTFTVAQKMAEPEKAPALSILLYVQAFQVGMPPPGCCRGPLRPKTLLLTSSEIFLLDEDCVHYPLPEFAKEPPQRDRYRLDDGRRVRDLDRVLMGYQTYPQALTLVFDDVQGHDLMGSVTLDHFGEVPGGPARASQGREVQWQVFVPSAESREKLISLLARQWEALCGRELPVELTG
Procedure: CETSAs were performed as previously described (Jafari et al., 2014; Reinhard et al., 2015). In brief, P cells were treated in the presence or absence of BRD-4780 for 1 hr, harvested (trypsinized), washed in PBS, resuspended in PBS (containing protease inhibitors) and distributed in 0.2 ml PCR tubes (100 μl; 600,000 cells). Cells were incubated at their designated temperatures for 3 min, then at 25° C. for 3 min and lysed by the addition of 1% NP-40. Immediately thereafter, samples were snap frozen and thawed using thermal cycler set at 25° C. Samples were spun at 20′000×g for 20 min (4° C.) to remove precipitated protein and the supernatant was analyzed by Western blot to examine the TMED9/Nischarin thermal stability.

[1] = Munk et al., 1996; cited from earlier work

With `CC(C)[C@@H]1[C@H]2CC[C@H](C2)[C@H]1N` (racemic) [BRD-4780, 2-endo-amino-3-exo-isopropylbicyclo[2.2.1]heptane] the “rhodopsin accumulation in intracellular compartments of retina” value (Rhodopsin) was “significantly reduced rhodopsin accumulation in intracellular compartments”, the “rescue from THP-induced cell death” value (P cells) was “rescued P cells from THP-induced cell death” and the “Nischarin thermal stability / engagement (CETSA)” value (Nischarin) was “no evidence indicative of direct engagement; also recorded: did not bind Nischarin”. The “anti-hypertensive efficacy in animal studies” value [1] was “lack of efficacy as an anti-hypertensive”.
